Assays:
[1] = Example 2.1 rhamnolipid precipitation, filtration, centrifugation: lead; conditions: for Treatment 3: Rhamnolipid and Centrifugation Cc / Treatment 1: Rhamnolipid Only Cr / Treatment 2: Rhamnolipid and Filtration Cf: lead concentration after treatment; for Treatment 1: Rhamnolipid Only (Rr) efficiency of removal / Treatment 2: Rhamnolipid and Filtration (Rf) efficiency of removal / Treatment 3: Rhamnolipid and Centrifugation (Rc) efficiency of removal: lead
Protocol: (§1) Structural variants of synthetic glycolipids were used to show the effect of the number and length of the hydrophobic tail(s) on rhamnolipid as a chemical precipitant. […] Solutions (10 mM) were made using nanopure water (≥18 MΩ-cm) then adjusted to a pH of 6.9±0.05 with HNO3 and NaOH. These solutions were made in advance and stored in the cold room for up to one month. They were brought to room temperature before each experiment.
(§2) Three metals were tested for binding with rhamnolipid. Lead as […] (Fisher Scientific, Waltham, MA, 99% purity), was chosen to represent a metal with high rhamnolipid-metal conditional stability constant; lanthanum as La(NO3)3 6(H2O) (Sigma-Aldrich, St. Louis, MO, 99.99% purity) was chosen as a representative REE; and magnesium as Mg(NO3)2 6(H2O) (Sigma-Aldrich, St. Louis, MO, 99% purity) was chosen to represent a metal with a low rhamnolipid-metal conditional stability constant (Hogan et al., 2017). Metal solutions (5 mM) were made using nanopure water (≥18 MΩ-cm) in 20 ml glass scintillation vials. All solutions were used within 15 min to ensure minimal adsorption to the glass vial.
(§3) Three glycolipid-based treatments were evaluated to remove metal from solution: (1) the addition of glycolipid with no further treatment (gravitational precipitation), (2) the addition of a glycolipid followed by filtration or (3) the addition of a glycolipid followed by centrifugation. Each metal (Pb, La, and Mg) was evaluated separately with each of the glycolipid structures. For each experiment, a metal solution was mixed with a glycolipid solution in a 1.7 ml reaction tube at varying molar ratios of glycolipid to metal: 0:1 (glycolipid-free control), 2:1, 5:1, and 10:1. The reactions were mixed in the order of nanopure water (≥18 MΩ-cm), glycolipid solution (10 mM), then metal solution (5 mM). The metal and glycolipid solutions were continuously stirred as they were aliquoted into the reaction tubes. The experiment was performed in triplicate.
(§4) The reaction tubes were mixed overnight (16 to 24 h) and then three samples were collected from each tube to measure the effect of each of the three treatments: a glycolipid only treatment sample, a filtration treatment sample, and a centrifugation treatment sample. Briefly, for the glycolipid only treatment samples all tubes were vortexed for approximately 5 sec immediately before removing 0.1 ml into a dilution tube of 2% trace metal grade nitric acid (12 to 14 ml) to minimize the settling of particles. For the filtration samples each reaction tube was vortexed for 5 sec and then a 0.6 ml aliquot was collected with a 1 ml syringe. A GHP acrodisc disk filter (hydrophilic polypropylene membrane, 0.45 μm pore size, 25 mm disc diameter) from Pall Life Sciences (Port Washington, New York) was then placed onto the end of the syringe and the solution was pushed through the filter. The void space in the disk filter holds approximately 0.5 ml, therefore around 0.1 ml of filtrate was collected into a dilution tube. For the centrifugation sample, the remaining solution was centrifuged at 10,000 RCF for 15 min. Approximately 0.1 ml of the supernatant was aliquoted into a dilution tube. Following collection, all samples were taken for metal analysis using ICP-MS.

[2] = Example 2.1 rhamnolipid precipitation, filtration, centrifugation: lanthanum; conditions: for Treatment 2: Rhamnolipid and Filtration Cf / Treatment 3: Rhamnolipid and Centrifugation Cc / Treatment 1: Rhamnolipid Only Cr: lanthanum concentration after treatment; for Treatment 2: Rhamnolipid and Filtration (Rf) efficiency of removal / Treatment 3: Rhamnolipid and Centrifugation (Rc) efficiency of removal / Treatment 1: Rhamnolipid Only (Rr) efficiency of removal: lanthanum
Protocol: as §1, §2, §3, §4

[3] = Example 2.1 rhamnolipid precipitation, filtration, centrifugation: magnesium; conditions: for Treatment 2: Rhamnolipid and Filtration Cf / Treatment 3: Rhamnolipid and Centrifugation Cc / Treatment 1: Rhamnolipid Only Cr: magnesium concentration after treatment; for Treatment 1: Rhamnolipid Only (Rr) efficiency of removal / Treatment 2: Rhamnolipid and Filtration (Rf) efficiency of removal / Treatment 3: Rhamnolipid and Centrifugation (Rc) efficiency of removal: magnesium
Protocol: as §1, §2, §3, §4

CCCCCCCC(CC(=O)O)OC1O[C@@H](C)[C@H](O)[C@@H](O)[C@H]1O (stereo partly drawn) [Rha C10]
Treatment 3: Rhamnolipid and Centrifugation Cc ([1]; molar ratio 2 to 1): 0.320 ± 0.045 mmol/L
Treatment 1: Rhamnolipid Only Cr ([1]; molar ratio 5 to 1): 0.293 ± 0.006 mmol/L
Treatment 2: Rhamnolipid and Filtration Cf ([1]; molar ratio 5 to 1): 0.028 ± 0.031 mmol/L
Treatment 3: Rhamnolipid and Centrifugation Cc ([1]; molar ratio 5 to 1): 0.288 ± 0.002 mmol/L
Treatment 1: Rhamnolipid Only Cr ([1]; molar ratio 10 to 1): 0.232 ± 0.009 mmol/L
Treatment 2: Rhamnolipid and Filtration Cf ([1]; molar ratio 10 to 1): 0.001 ± 0.000 mmol/L
Treatment 3: Rhamnolipid and Centrifugation Cc ([1]; molar ratio 10 to 1): 0.231 ± 0.003 mmol/L
Treatment 1: Rhamnolipid Only Cr ([1]; molar ratio rhamnolipid:lead 2 to 1): 0.320 ± 0.012 mmol/L
Treatment 1: Rhamnolipid Only (Rr) efficiency of removal ([1]; molar ratio 2 to 1): (2.7%)
Treatment 2: Rhamnolipid and Filtration (Rf) efficiency of removal ([1]; molar ratio 2 to 1): (88.8%)
Treatment 3: Rhamnolipid and Centrifugation (Rc) efficiency of removal ([1]; molar ratio 2 to 1): (2.5%)
Treatment 1: Rhamnolipid Only (Rr) efficiency of removal ([1]; molar ratio 5 to 1): (10.7%)
Treatment 2: Rhamnolipid and Filtration (Rf) efficiency of removal ([1]; molar ratio 5 to 1): (91.6%)
Treatment 3: Rhamnolipid and Centrifugation (Rc) efficiency of removal ([1]; molar ratio 5 to 1): (12.2%)
Treatment 1: Rhamnolipid Only (Rr) efficiency of removal ([1]; molar ratio 10 to 1): (29.3%)
Treatment 2: Rhamnolipid and Filtration (Rf) efficiency of removal ([1]; molar ratio 10 to 1): (99.8%)
Treatment 3: Rhamnolipid and Centrifugation (Rc) efficiency of removal ([1]; molar ratio 10 to 1): (29.7%)
Treatment 2: Rhamnolipid and Filtration Cf ([2]; molar ratio 2 to 1): 0.096 ± 0.025 mmol/L
Treatment 3: Rhamnolipid and Centrifugation Cc ([2]; molar ratio 2 to 1): 0.228 ± 0.013 mmol/L
Treatment 1: Rhamnolipid Only Cr ([2]; molar ratio 5 to 1): 0.246 ± 0.016 mmol/L
Treatment 2: Rhamnolipid and Filtration Cf ([2]; molar ratio 5 to 1): 0.015 ± 0.010 mmol/L
Treatment 3: Rhamnolipid and Centrifugation Cc ([2]; molar ratio 5 to 1): 0.088 ± 0.003 mmol/L
Treatment 1: Rhamnolipid Only Cr ([2]; molar ratio 10 to 1): 0.190 ± 0.004 mmol/L
Treatment 2: Rhamnolipid and Filtration Cf ([2]; molar ratio 10 to 1): 0.022 ± 0.028 mmol/L
Treatment 3: Rhamnolipid and Centrifugation Cc ([2]; molar ratio 10 to 1): 0.051 ± 0.010 mmol/L
Treatment 1: Rhamnolipid Only Cr ([2]; molar ratio rhamnolipid:lanthanum 2 to 1): 0.282 ± 0.009 mmol/L
Treatment 2: Rhamnolipid and Filtration (Rf) efficiency of removal ([2]; molar ratio 2 to 1): (65.7%)
Treatment 3: Rhamnolipid and Centrifugation (Rc) efficiency of removal ([2]; molar ratio 2 to 1): (18.6%)
Treatment 1: Rhamnolipid Only (Rr) efficiency of removal ([2]; molar ratio 5 to 1): (12.3%)
Treatment 2: Rhamnolipid and Filtration (Rf) efficiency of removal ([2]; molar ratio 5 to 1): (94.6%)
Treatment 3: Rhamnolipid and Centrifugation (Rc) efficiency of removal ([2]; molar ratio 5 to 1): (68.7%)
Treatment 1: Rhamnolipid Only (Rr) efficiency of removal ([2]; molar ratio 10 to 1): (32.2%)
Treatment 2: Rhamnolipid and Filtration (Rf) efficiency of removal ([2]; molar ratio 10 to 1): (92.1%)
Treatment 3: Rhamnolipid and Centrifugation (Rc) efficiency of removal ([2]; molar ratio 10 to 1): (81.7%)
Treatment 2: Rhamnolipid and Filtration Cf ([3]; molar ratio 2 to 1): 0.328 ± 0.036 mmol/L
Treatment 3: Rhamnolipid and Centrifugation Cc ([3]; molar ratio 2 to 1): 0.497 ± 0.014 mmol/L
Treatment 1: Rhamnolipid Only Cr ([3]; molar ratio 5 to 1): 0.492 ± 0.007 mmol/L
Treatment 2: Rhamnolipid and Filtration Cf ([3]; molar ratio 5 to 1): 0.283 ± 0.059 mmol/L
Treatment 3: Rhamnolipid and Centrifugation Cc ([3]; molar ratio 5 to 1): 0.500 ± 0.008 mmol/L
Treatment 1: Rhamnolipid Only Cr ([3]; molar ratio 10 to 1): 0.503 ± 0.004 mmol/L
Treatment 2: Rhamnolipid and Filtration Cf ([3]; molar ratio 10 to 1): 0.317 ± 0.073 mmol/L
Treatment 3: Rhamnolipid and Centrifugation Cc ([3]; molar ratio 10 to 1): 0.490 ± 0.004 mmol/L
Treatment 1: Rhamnolipid Only Cr ([3]; molar ratio rhamnolipid:magnesium 2 to 1): 0.486 ± 0.021 mmol/L
Treatment 1: Rhamnolipid Only (Rr) efficiency of removal ([3]; molar ratio 2 to 1): (3.1%)
Treatment 2: Rhamnolipid and Filtration (Rf) efficiency of removal ([3]; molar ratio 2 to 1): (34.6%)
Treatment 3: Rhamnolipid and Centrifugation (Rc) efficiency of removal ([3]; molar ratio 2 to 1): (0.8%)
Treatment 1: Rhamnolipid Only (Rr) efficiency of removal ([3]; molar ratio 5 to 1): (1.8%)
Treatment 2: Rhamnolipid and Filtration (Rf) efficiency of removal ([3]; molar ratio 5 to 1): (43.6%)
Treatment 3: Rhamnolipid and Centrifugation (Rc) efficiency of removal ([3]; molar ratio 5 to 1): (0.2%)
Treatment 2: Rhamnolipid and Filtration (Rf) efficiency of removal ([3]; molar ratio 10 to 1): (36.7%)
Treatment 3: Rhamnolipid and Centrifugation (Rc) efficiency of removal ([3]; molar ratio 10 to 1): (2.2%)
